The test system of the assay is BDF1 mice, P388 leukemia ip, median survival T/C. Briefly: NCI In Vivo Anticancer Drug Screen. Data for tumor model P388 Leukemia (intraperitoneal) in B6D2F1 (BDF1) mice. The conditions noted are these: endpoint: median survival time, higher = longer survival. An outline of the steps: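 Survival ratio, drug arm over vehicle arm, in mice with a transplanted tumour.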

The mark [1] stands for this setting: dose: 50.0 mg/kg/injection, schedule: Q01DX009 (ip), vehicle: saline with Tween-80.
[2] abbreviates: dose: 100.0 mg/kg/injection, schedule: Q04DX003 (ip), vehicle: saline with Tween-80.
[3] abbreviates: dose: 200.0 mg/kg/injection, schedule: Q04DX003 (ip), vehicle: saline with Tween-80.
[4] abbreviates: dose: 50.0 mg/kg/injection, schedule: Q01DX009 (ip), vehicle: saline.
Where [5] appears, read: dose: 12.5 mg/kg/injection, schedule: Q01DX009 (ip), vehicle: saline with Tween-80.
[6] abbreviates: dose: 100.0 mg/kg/injection, schedule: Q01DX009 (ip), vehicle: saline with Tween-80.
[7] abbreviates: dose: 200.0 mg/kg/injection, schedule: Q01DX009 (ip), vehicle: saline with Tween-80.
[8] abbreviates: dose: 400.0 mg/kg/injection, schedule: Q04DX003 (ip), vehicle: saline with Tween-80.
The mark [9] stands for this setting: dose: 40.0 mg/kg/injection, schedule: Q01DX009 (ip), vehicle: saline.
The mark [10] stands for this setting: dose: 400.0 mg/kg/injection, schedule: Q01DX009 (ip), vehicle: saline with Tween-80.

Where “and” joins values, the source holds several entries; their conditions need not be identical. Equal entries are not always repeated. Inconclusive results and toxic doses are left out.

`CCCOP(=S)(N1CC1C)N1CC1(C)C` (configuration not stated): the T/C (dose: 33.0 mg/kg/injection, schedule: Q01DX009 (ip), vehicle: saline with Tween-80) is 154 % of control; the T/C under setting [1] is 186 % of control; the T/C (dose: 75.0 mg/kg/injection, schedule: Q01DX009 (ip), vehicle: saline with Tween-80) was 190 % of control; the T/C under setting [2] was 159 % of control and 166 % of control; the T/C (dose: 150.0 mg/kg/injection, schedule: Q04DX003 (ip), vehicle: saline with Tween-80) was 208 % of control; the T/C under setting [3] is 154 % of control.
For the compound `COc1cc2c(c(OC)c1OC)-c1ccc(SC)c(=O)cc1[C@@H](NC1OC(CO)C(O)C(O)C1O)CC2` (some centres not stated), under setting [4], the T/C was 155 % of control.
As to `CN(C)c1ccc(/C=C\c2ccnc3ccccc23)cc1Br`, the T/C reads like this: under setting [5], 107 % of control; (dose: 25.0 mg/kg/injection, schedule: Q01DX009 (ip), vehicle: saline with Tween-80) 94 % of control; under setting [1], 99 % of control; under setting [6], 89 % of control.
`Nc1nc(N)c(N=O)c(Nc2ccc(I)cc2)n1`: the T/C reads like this: under setting [6], 108 % of control; under setting [2], 112 % of control; under setting [7], 95 % of control; under setting [3], 108 % of control; under setting [8], 100 % of control.
With `CCN(CC)CCOC(=O)c1ccccc1Nc1cccc(C)c1`, the T/C reads like this: (dose: 25.0 mg/kg/injection, schedule: Q01DX009 (ip), vehicle: saline) 104 % of control; (dose: 25.0 mg/kg/injection, schedule: Q04DX003 (ip), vehicle: saline) 109 % of control; under setting [4], 108 % of control; (dose: 50.0 mg/kg/injection, schedule: Q04DX003 (ip), vehicle: saline) 100 % of control; (dose: 87.0 mg/kg/injection, schedule: Q04DX003 (ip), vehicle: saline) 119 % of control; (dose: 100.0 mg/kg/injection, schedule: Q04DX003 (ip), vehicle: saline) 109 % of control. Moreover, the T/C (dose: 175.0 mg/kg/injection, schedule: Q04DX003 (ip), vehicle: saline) was 107 % of control.
Turning to `O=C1CC(c2ccc(OCN(CCCl)CCCl)cc2)CC(=O)C1CN(CCCl)CCCl` (configuration not stated), the T/C by setting is: (dose: 0.5 mg/kg/injection, schedule: Q01DX009 (ip), vehicle: Klucel (hydroxypropylcellulose) (HPC)) 124 % of control; (dose: 4.0 mg/kg/injection, schedule: Q01DX009 (ip), vehicle: Klucel (hydroxypropylcellulose) (HPC)) 160 % of control.
Consider `CN(C)CCOCN1COCC1(C)C`, for which the T/C under setting [1] was 120 % of control.
Regarding `CC12CCC(OC3OC(CO)C(O)C(O)C3O)CC1CCC1C2CCC2(C)C(C3=CC(=O)OC3)CCC12O` (configuration not stated), the T/C is 86 % of control under setting [9]; 86 % of control (dose: 80.0 mg/kg/injection, schedule: Q01DX009 (ip), vehicle: saline); 95 % of control (dose: 160.0 mg/kg/injection, schedule: Q01DX009 (ip), vehicle: saline).
Take `CC1(C)C(O)(C#N)C(C)(C)C1(O)C#N` (configuration not stated): the T/C is 100 % of control (dose: 3.13 mg/kg/injection, schedule: Q04DX003 (ip), vehicle: saline); 109 % of control (dose: 6.25 mg/kg/injection, schedule: Q04DX003 (ip), vehicle: saline); 95 % of control (dose: 12.5 mg/kg/injection, schedule: Q04DX003 (ip), vehicle: saline).
For `Nc1ncc2[nH]c(C(F)(F)F)nc2n1`, the T/C runs as follows: under setting [1], 102 % of control; under setting [6], 102 % of control; under setting [7], 105 % of control; under setting [10], 117 % of control.
Regarding `C=C1C(O)C2(O)OCC34C(CC5C(C)=CC(=O)C(OC)C5(C)C23)OC(=O)C(OC(=O)C(C)CC)C14` (configuration not stated), the T/C (dose: 0.06 mg/kg/injection, schedule: Q01DX009 (ip), vehicle: saline with Tween-80) is 98 % of control; the T/C (dose: 0.12 mg/kg/injection, schedule: Q01DX009 (ip), vehicle: saline with Tween-80) was 112 % of control; the T/C (dose: 0.25 mg/kg/injection, schedule: Q01DX009 (ip), vehicle: saline with Tween-80) is 105 % of control; the T/C (dose: 0.5 mg/kg/injection, schedule: Q01DX009 (ip), vehicle: saline with Tween-80) is 110 % of control; the T/C (dose: 1.0 mg/kg/injection, schedule: Q01DX009 (ip), vehicle: saline with Tween-80) was 120 % of control; the T/C (dose: 2.0 mg/kg/injection, schedule: Q01DX009 (ip), vehicle: saline with Tween-80) is 115 % of control.
As to `Nc1c(Br)cc(Br)c(C(=O)O)c1Br`, the T/C by setting is: (dose: 50.0 mg/kg/injection, schedule: Q04DX003 (ip), vehicle: Klucel (hydroxypropylcellulose) (HPC)) 100 % of control; (dose: 100.0 mg/kg/injection, schedule: Q04DX003 (ip), vehicle: Klucel (hydroxypropylcellulose) (HPC)) 100 % of control; (dose: 200.0 mg/kg/injection, schedule: Q04DX003 (ip), vehicle: Klucel (hydroxypropylcellulose) (HPC)) 95 % of control.
`CC(=O)c1ccc2ccccc2c1O`: the T/C (dose: 100.0 mg/kg/injection, schedule: Q01DX001 (ip), vehicle: other) was 90 % of control; the T/C under setting [6] was 104 % of control; the T/C under setting [2] is 109 % of control; the T/C (dose: 175.0 mg/kg/injection, schedule: Q01DX009 (ip), vehicle: saline with Tween-80) is 122 % of control; the T/C (dose: 200.0 mg/kg/injection, schedule: Q01DX001 (ip), vehicle: other) is 100 % of control; the T/C under setting [7] is 104 % of control. Also, the T/C was 104 % of control under setting [3]; 95 % of control (dose: 400.0 mg/kg/injection, schedule: Q01DX001 (ip), vehicle: other); 118 % of control under setting [10]; 104 % of control under setting [8]; 113 % of control (dose: 600.0 mg/kg/injection, schedule: Q01DX009 (ip), vehicle: saline with Tween-80).
Regarding `c1ccc2c(NCCCCCCNc3c4ccccc4nc4ccccc34)c3ccccc3nc2c1`, the T/C was 110 % of control (dose: 0.31 mg/kg/injection, schedule: Q01DX009 (ip), vehicle: lactic acid); 123 % of control (dose: 0.62 mg/kg/injection, schedule: Q01DX009 (ip), vehicle: lactic acid); 163 % of control (dose: 1.25 mg/kg/injection, schedule: Q01DX009 (ip), vehicle: lactic acid); 180 % of control (dose: 2.5 mg/kg/injection, schedule: Q01DX009 (ip), vehicle: lactic acid); 178 % of control (dose: 5.0 mg/kg/injection, schedule: Q01DX009 (ip), vehicle: lactic acid).
With `FC(F)(F)c1ccc2nc(CI)c(CI)nc2c1`, the T/C by setting is: (dose: 1.37 mg/kg/injection, schedule: Q01DX009 (ip), vehicle: saline) 115 % of control; (dose: 1.5 mg/kg/injection, schedule: Q01DX009 (ip), vehicle: Klucel (hydroxypropylcellulose) (HPC)) 105 % of control; (dose: 2.05 mg/kg/injection, schedule: Q01DX009 (ip), vehicle: saline) 115 % of control; (dose: 3.0 mg/kg/injection, schedule: Q01DX009 (ip), vehicle: Klucel (hydroxypropylcellulose) (HPC)) 105 % of control; (dose: 6.0 mg/kg/injection, schedule: Q01DX009 (ip), vehicle: Klucel (hydroxypropylcellulose) (HPC)) 111 % of control; (dose: 12.0 mg/kg/injection, schedule: Q01DX009 (ip), vehicle: Klucel (hydroxypropylcellulose) (HPC)) 122 % of control. The T/C is, setting by setting: (dose: 12.0 mg/kg/injection, schedule: Q01DX009 (ip), vehicle: saline) 105 % of control; (dose: 12.0 mg/kg/injection, schedule: Q04DX003 (ip), vehicle: Klucel (hydroxypropylcellulose) (HPC)) 118 % of control; under setting [5], 105 % of control; (dose: 18.0 mg/kg/injection, schedule: Q01DX009 (ip), vehicle: saline) 100 % of control; (dose: 24.0 mg/kg/injection, schedule: Q01DX009 (ip), vehicle: Klucel (hydroxypropylcellulose) (HPC)) 122 % of control; (dose: 25.0 mg/kg/injection, schedule: Q04DX003 (ip), vehicle: Klucel (hydroxypropylcellulose) (HPC)) 109 % of control. Also, the T/C is, setting by setting: (dose: 27.0 mg/kg/injection, schedule: Q01DX009 (ip), vehicle: saline) 105 % of control; (dose: 28.0 mg/kg/injection, schedule: Q01DX009 (ip), vehicle: saline) 100 % of control; under setting [9], 89 % of control; (dose: 48.0 mg/kg/injection, schedule: Q01DX009 (ip), vehicle: Klucel (hydroxypropylcellulose) (HPC)) 122 % of control.

Source of the values: PubChem BioAssay AID328 (DTP/NCI, 2004).
